Assay [1] concerns the target T1, Inhibitor of nuclear factor kappa-B kinase subunit beta (Homo sapiens) (UniProt O14920).
T1 sequence (whole entry): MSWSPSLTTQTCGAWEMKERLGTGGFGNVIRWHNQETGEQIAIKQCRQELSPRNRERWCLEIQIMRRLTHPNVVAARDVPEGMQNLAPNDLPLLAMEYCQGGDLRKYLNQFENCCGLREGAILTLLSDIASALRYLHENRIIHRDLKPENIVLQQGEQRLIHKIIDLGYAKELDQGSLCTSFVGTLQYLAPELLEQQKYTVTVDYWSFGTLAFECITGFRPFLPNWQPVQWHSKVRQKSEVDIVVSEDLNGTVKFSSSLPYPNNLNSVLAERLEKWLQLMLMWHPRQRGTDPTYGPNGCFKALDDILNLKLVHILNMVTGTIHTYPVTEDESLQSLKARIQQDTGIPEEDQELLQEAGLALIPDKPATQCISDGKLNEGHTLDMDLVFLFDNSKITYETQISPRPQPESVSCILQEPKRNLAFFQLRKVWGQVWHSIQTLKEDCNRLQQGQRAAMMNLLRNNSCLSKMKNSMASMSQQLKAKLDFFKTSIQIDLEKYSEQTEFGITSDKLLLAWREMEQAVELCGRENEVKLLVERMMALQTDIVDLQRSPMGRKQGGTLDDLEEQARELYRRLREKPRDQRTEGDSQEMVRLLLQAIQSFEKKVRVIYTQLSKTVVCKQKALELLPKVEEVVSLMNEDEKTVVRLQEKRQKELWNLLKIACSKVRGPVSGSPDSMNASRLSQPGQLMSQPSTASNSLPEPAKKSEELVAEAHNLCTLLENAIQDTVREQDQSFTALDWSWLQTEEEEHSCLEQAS
The settings on record: at 1 µM.

Assay [2] concerns the target T2, Tyrosine-protein kinase Mer (Homo sapiens) (UniProt Q12866).
T2 sequence (whole entry): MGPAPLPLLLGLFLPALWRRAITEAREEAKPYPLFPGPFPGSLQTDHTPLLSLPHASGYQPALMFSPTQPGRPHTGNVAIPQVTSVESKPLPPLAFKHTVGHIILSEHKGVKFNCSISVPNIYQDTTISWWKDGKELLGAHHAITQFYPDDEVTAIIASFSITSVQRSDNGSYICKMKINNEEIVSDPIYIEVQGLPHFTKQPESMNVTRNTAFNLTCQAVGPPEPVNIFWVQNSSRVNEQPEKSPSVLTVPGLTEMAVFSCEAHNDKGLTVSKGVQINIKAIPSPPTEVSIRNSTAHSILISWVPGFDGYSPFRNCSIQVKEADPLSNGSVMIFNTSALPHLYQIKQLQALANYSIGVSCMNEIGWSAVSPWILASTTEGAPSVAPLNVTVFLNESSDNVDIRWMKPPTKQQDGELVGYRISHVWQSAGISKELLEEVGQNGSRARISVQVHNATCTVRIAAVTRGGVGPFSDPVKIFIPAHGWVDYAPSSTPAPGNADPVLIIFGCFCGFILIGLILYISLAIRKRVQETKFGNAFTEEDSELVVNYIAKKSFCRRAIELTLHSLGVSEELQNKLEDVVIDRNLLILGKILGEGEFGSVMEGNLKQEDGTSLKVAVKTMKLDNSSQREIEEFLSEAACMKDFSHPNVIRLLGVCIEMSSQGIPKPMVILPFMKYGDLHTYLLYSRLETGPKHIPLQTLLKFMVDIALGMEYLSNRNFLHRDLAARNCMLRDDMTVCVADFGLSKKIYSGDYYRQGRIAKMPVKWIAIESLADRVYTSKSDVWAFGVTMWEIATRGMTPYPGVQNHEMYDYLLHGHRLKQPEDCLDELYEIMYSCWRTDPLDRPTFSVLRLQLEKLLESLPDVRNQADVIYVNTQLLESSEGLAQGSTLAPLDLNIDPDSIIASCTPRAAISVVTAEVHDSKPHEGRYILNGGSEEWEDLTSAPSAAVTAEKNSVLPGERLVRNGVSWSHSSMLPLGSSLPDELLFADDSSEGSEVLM
To be noted: at 10 µM.

The target in assay [3] is T3, Inhibitor of nuclear factor kappa-B kinase subunit alpha (Homo sapiens) (UniProt O15111).
T3 sequence (whole entry): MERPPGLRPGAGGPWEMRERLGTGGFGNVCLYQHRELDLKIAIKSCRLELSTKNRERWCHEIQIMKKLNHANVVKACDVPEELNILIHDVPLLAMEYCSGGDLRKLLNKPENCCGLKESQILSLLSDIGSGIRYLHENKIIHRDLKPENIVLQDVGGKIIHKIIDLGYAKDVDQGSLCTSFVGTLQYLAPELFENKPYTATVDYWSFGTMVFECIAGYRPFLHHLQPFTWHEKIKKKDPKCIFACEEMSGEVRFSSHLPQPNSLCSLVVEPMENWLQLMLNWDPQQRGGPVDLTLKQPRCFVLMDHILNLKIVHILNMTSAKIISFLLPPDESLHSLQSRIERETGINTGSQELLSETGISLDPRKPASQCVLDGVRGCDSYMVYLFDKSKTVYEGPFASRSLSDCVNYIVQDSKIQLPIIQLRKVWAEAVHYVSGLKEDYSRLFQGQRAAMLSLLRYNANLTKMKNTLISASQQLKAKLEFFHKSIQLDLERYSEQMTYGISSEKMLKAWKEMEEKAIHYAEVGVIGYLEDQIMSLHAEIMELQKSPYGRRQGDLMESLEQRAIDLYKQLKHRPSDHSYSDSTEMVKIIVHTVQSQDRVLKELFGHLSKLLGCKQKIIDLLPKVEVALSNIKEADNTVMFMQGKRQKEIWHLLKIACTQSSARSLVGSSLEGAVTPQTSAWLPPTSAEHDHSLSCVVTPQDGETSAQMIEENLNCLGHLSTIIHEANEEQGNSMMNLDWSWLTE
To be noted: at 1 µM.

Several values for one entry are separate records, joined by “and”; a condition that tells them apart may be missing. Equal values may be shown once.

Consider `COc1cc(Nc2nccc(Nc3ccc4c(C)n[nH]c4c3)n2)cc(OC)c1OC`, for which the inhibition in assay [1] is -2%; in assay [2], -5%; in assay [3], -1% and -2%.
As to `Cn1c(-c2nonc2N)nc2cnccc21`, the inhibition was -4% and -2% in assay [1]; -9% in assay [2]; 27% and 23% in assay [3].
Consider `O=C(Nc1n[nH]c2cc(-c3cc(F)ccc3F)ccc12)C1CC1`, for which the inhibition in assay [1] was -2% and -5%; in assay [2], 6%; in assay [3], 2%.
`COc1ccc(-c2ccc3c(NC(=O)C4CC4)n[nH]c3n2)cc1`: the inhibition in assay [1] was -5%; in assay [2], -5%; in assay [3] it was 1% and 2%.
Regarding `Cc1ccc(C(=O)NC2CCC2)cc1-c1ccc(C(=O)NCC2CC2)cc1`, the inhibition is -7% and -4% in assay [1]; 2% in assay [2]; 4% in assay [3].
On to `COc1cc2ncn(-c3cc(OCc4ccccc4Cl)c(C(N)=O)s3)c2cc1OC`, for which the inhibition in assay [1] is 2% and 1%; in assay [2], 83%; in assay [3], -1%.
As for `COc1cccc(/C=N/Nc2ncnc3c2cnn3-c2cccc(OC)c2)c1`, the inhibition was -1% and -4% in assay [1]; -6% in assay [2]; 2% and 21% in assay [3].
For `CCn1c(-c2nonc2N)nc2cncc(C(=O)N3CCNCC3)c21`, the inhibition in assay [1] was 13% and -2%; in assay [2], 0%; in assay [3], 2% and 0%.
Regarding `Nc1nccc(-c2c(-c3ccc(F)cc3)ncn2CCCN2CCOCC2)n1`, the inhibition is -5% and -8% in assay [1]; 4% in assay [2]; 6% and 5% in assay [3].
Consider `COc1cc2ncnc(Nc3ccc(C)c(O)c3)c2cc1OC`, for which the inhibition in assay [1] was -7% and -4%; in assay [2], -10%; in assay [3] it was 0% and 1%.
Consider `COC(=O)c1cncc(/C=C/c2c(C)cc(O)cc2C)c1`, for which the inhibition in assay [1] was -4% and -5%; in assay [2], -6%; in assay [3] it was 3% and 2%.
As to `NC(=O)c1sc(-n2cnc3ccccc32)cc1OCc1ccccc1Br`, the inhibition in assay [1] is 1% and 0%; in assay [2] it was 45%; in assay [3], 0% and -1%.
In the case of `Fc1cccc(COc2ccc(Nc3ncnc4sc(-c5ccco5)cc34)cc2Cl)c1`, the inhibition was 10% and 6% in assay [1]; 78% in assay [2]; 14% and 0% in assay [3].
Consider `COc1ccc(-c2nn3ncccc3c2-c2ccnc(Nc3ccc(F)c(F)c3)n2)cc1`, for which the inhibition was -7% and -1% in assay [1]; -4% in assay [2]; 8% and 4% in assay [3].
With `CNC(=O)c1cccc(C#Cc2cncnc2Nc2ccc(OCc3cccc(F)c3)c(Cl)c2)c1`, the inhibition was -2% and 0% in assay [1]; 61% in assay [2]; -1% and 17% in assay [3].
Regarding `CN1CCN(C(=O)c2ccc(NC(=O)Nc3ccc(N(C)c4ccnc(Nc5ccc(CS(C)(=O)=O)cc5)n4)cc3)cc2)CC1`, the inhibition in assay [1] was -5% and -8%; in assay [2], 0%; in assay [3], 1% and 2%.

The inhibition is the drop in the measured response relative to a control, in per cent.
